Tests used:
Test in all cases: Dundee protein kinase screen
Type in all cases: biochemical
[1] = molecular target: ZAP70 (Homo sapiens, UniProt P43403); conditions: ZAP70, 1µM; read-out: %Remaining activity at 1µM NU6300
Method in brief: (§1)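 Selectivity panel of 131 protein kinases, inhibitor tested at a single concentration of 1 µM; values are % kinase activity remaining, mean of duplicates. Re-test of selected kinases used 0.5 µM in the standard format and again after a 4 hour pre-incubation with the inhibitor.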

[2] = molecular target: p38δ MAPK (Homo sapiens, UniProt O15264); conditions: read-out: %Remaining activity at 1µM NU6300
Method in brief: as §1

[3] = molecular target: MNK1 (Homo sapiens, UniProt Q9BUB5); conditions: MNK1, 1µM; read-out: %Remaining activity at 1µM NU6300
Method in brief: as §1

[4] = molecular target: p38α MAPK (Homo sapiens, UniProt Q16539); conditions: read-out: %Remaining activity at 1µM NU6300
p38α MAPK, sequence (Q16539 whole entry): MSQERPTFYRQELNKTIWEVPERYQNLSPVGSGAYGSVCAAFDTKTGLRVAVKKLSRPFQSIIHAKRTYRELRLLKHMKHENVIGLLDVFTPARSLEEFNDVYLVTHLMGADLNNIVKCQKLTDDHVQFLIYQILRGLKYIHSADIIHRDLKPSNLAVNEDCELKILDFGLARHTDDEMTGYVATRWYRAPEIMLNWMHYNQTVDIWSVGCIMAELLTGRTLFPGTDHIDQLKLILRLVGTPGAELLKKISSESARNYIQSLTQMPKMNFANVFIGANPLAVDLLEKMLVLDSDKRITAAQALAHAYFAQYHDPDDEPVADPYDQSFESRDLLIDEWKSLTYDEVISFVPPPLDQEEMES
Method in brief: as §1

[5] = molecular target: ERK1 (Homo sapiens, UniProt P27361); conditions: ERK1, 1µM; read-out: %Remaining activity at 1µM NU6300
Method in brief: as §1

[6] = molecular target: RSK1 (Homo sapiens, UniProt Q15418); conditions: RSK1, 1µM; read-out: %Remaining activity at 1µM NU6300
Method in brief: as §1

[7] = molecular target: T1, ERK8 (Homo sapiens, UniProt Q8TD08); conditions: ERK8, 1µM; read-out: %Remaining activity at 1µM NU6300
T1 sequence (Q8TD08 1-544): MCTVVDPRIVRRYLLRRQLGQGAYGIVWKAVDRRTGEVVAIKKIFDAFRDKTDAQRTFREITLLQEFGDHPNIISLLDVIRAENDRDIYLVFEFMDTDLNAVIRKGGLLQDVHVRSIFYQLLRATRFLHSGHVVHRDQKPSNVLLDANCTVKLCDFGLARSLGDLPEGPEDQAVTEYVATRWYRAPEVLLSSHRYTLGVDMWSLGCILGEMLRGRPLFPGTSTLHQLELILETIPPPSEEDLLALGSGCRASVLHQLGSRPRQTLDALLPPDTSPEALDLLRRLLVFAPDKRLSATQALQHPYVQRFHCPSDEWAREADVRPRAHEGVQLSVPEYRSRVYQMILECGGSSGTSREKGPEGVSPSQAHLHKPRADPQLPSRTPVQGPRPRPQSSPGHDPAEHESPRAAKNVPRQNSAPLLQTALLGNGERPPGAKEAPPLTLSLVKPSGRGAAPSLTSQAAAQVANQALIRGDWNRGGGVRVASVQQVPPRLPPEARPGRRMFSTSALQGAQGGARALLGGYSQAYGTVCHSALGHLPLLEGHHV
Method in brief: as §1

[8] = molecular target: IR (Homo sapiens, UniProt P06213); conditions: read-out: %Remaining activity at 1µM NU6300
IR, sequence (P06213 28-1382): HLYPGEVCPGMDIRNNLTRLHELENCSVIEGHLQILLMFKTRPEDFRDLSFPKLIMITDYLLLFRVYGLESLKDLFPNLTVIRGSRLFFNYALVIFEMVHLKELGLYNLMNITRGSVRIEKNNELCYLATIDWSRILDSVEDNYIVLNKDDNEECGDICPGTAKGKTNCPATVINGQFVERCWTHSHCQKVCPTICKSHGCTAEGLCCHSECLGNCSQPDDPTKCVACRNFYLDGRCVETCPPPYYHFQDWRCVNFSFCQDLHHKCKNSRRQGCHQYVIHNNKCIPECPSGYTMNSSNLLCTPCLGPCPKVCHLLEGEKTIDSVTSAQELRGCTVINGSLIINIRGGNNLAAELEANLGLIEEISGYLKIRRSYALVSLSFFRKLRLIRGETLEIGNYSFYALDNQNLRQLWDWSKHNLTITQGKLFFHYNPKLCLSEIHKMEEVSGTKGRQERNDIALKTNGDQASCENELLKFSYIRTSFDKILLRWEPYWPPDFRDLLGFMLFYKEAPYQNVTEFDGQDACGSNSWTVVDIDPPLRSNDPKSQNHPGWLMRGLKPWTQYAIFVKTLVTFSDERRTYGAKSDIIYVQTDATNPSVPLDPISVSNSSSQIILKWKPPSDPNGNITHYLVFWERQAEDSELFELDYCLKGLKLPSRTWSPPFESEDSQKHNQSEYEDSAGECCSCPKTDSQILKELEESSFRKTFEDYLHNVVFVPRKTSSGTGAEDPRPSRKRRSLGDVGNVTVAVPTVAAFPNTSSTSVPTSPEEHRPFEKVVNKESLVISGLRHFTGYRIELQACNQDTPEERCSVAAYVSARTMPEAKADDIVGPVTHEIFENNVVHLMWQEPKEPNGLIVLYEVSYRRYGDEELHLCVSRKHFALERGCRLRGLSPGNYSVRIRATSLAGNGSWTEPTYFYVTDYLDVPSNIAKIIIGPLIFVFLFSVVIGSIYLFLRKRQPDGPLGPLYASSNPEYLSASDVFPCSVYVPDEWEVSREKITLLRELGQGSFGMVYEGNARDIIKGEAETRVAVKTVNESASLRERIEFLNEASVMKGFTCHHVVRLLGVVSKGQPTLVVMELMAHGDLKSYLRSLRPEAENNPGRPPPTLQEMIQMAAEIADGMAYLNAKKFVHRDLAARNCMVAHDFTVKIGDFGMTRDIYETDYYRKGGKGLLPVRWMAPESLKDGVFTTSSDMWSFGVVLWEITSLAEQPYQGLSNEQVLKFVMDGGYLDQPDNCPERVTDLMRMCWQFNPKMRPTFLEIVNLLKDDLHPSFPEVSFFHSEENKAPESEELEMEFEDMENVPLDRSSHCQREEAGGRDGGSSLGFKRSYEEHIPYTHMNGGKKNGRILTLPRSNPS
Method in brief: as §1

[9] = molecular target: HER4 (Homo sapiens, UniProt Q15303); conditions: HER4, 1µM; read-out: %Remaining activity at 1µM NU6300
HER4, sequence (Q15303 26-1308): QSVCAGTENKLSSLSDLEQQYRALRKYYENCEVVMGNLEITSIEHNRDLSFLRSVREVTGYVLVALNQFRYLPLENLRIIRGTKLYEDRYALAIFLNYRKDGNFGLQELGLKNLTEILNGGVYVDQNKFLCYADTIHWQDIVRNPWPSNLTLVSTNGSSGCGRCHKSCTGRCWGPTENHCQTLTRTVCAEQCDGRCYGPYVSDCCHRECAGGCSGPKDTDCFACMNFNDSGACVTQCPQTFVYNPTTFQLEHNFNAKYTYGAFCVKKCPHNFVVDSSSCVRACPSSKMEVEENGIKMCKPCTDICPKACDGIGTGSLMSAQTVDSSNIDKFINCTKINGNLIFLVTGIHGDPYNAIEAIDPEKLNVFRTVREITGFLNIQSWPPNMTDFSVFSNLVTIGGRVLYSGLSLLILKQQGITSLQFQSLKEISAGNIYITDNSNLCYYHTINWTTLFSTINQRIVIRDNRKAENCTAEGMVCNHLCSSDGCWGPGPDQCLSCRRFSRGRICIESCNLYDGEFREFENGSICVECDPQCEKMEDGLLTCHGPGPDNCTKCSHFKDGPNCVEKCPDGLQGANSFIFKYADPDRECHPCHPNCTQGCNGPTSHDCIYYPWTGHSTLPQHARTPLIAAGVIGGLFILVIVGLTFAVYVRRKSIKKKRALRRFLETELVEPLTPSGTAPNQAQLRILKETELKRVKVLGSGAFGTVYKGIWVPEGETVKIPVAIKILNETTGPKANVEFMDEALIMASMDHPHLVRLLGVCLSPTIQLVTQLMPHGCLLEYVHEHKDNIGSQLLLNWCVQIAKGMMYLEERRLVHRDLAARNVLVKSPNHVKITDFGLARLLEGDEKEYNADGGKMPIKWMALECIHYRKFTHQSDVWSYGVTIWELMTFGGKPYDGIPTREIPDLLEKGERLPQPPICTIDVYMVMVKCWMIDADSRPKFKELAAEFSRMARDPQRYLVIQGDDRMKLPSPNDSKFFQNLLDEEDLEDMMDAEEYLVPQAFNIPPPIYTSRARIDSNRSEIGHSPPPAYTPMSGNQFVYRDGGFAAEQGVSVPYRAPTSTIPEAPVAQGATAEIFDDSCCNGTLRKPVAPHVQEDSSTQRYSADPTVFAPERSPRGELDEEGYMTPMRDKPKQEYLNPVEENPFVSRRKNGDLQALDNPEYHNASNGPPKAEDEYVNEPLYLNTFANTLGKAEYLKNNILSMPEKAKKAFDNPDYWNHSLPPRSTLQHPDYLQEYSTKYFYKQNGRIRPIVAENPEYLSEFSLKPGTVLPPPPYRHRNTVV
Method in brief: as §1

[10] = molecular target: PIM3 (Homo sapiens, UniProt Q86V86); conditions: PIM3, 1µM; read-out: %Remaining activity at 1µM NU6300
Method in brief: as §1

[11] = molecular target: DAPK1 (Homo sapiens, UniProt P53355); conditions: DAPK1, 1µM; read-out: %Remaining activity at 1µM NU6300
Method in brief: as §1

[12] = molecular target: MKK2 (Homo sapiens, UniProt P36507); conditions: MKK2, 1µM; read-out: %Remaining activity at 1µM NU6300
MKK2, sequence (P36507 whole entry): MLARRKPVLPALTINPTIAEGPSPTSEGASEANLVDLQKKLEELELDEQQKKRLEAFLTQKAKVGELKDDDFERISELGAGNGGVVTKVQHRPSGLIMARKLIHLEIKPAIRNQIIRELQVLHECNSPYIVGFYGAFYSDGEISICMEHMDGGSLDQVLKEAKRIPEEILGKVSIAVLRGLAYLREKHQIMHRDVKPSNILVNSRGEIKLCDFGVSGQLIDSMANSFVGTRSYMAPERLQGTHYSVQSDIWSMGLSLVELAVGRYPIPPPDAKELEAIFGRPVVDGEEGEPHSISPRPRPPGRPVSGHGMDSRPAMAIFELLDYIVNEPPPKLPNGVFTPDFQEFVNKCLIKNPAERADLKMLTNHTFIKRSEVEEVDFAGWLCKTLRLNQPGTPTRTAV
Method in brief: as §1

[13] = molecular target: S6K1 (Homo sapiens, UniProt P23443); conditions: S6K1, 1µM; read-out: %Remaining activity at 1µM NU6300
S6K1, sequence (P23443 whole entry): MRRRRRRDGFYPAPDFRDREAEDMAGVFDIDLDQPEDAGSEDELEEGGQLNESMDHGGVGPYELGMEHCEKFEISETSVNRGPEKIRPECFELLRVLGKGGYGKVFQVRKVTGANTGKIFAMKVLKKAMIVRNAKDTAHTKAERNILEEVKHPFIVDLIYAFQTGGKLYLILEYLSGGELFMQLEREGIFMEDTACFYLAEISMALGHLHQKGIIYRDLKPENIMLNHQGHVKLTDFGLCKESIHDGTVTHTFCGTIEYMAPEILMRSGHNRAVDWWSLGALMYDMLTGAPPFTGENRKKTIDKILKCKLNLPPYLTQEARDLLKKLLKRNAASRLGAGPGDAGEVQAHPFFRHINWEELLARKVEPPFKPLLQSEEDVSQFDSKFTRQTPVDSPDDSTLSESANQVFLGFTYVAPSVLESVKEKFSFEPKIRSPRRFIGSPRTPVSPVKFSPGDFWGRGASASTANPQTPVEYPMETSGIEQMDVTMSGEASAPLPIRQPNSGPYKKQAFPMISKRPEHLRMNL
Method in brief: as §1

[14] = molecular target: RIPK2 (Homo sapiens, UniProt O43353); conditions: RIPK2, 1µM; read-out: %Remaining activity at 1µM NU6300
Method in brief: as §1

[15] = molecular target: T2, TSSK1 (Homo sapiens, UniProt Q9BXA7); conditions: TSSK1, 1µM; read-out: %Remaining activity at 1µM NU6300
T2 sequence (Q9BXA7 1-367): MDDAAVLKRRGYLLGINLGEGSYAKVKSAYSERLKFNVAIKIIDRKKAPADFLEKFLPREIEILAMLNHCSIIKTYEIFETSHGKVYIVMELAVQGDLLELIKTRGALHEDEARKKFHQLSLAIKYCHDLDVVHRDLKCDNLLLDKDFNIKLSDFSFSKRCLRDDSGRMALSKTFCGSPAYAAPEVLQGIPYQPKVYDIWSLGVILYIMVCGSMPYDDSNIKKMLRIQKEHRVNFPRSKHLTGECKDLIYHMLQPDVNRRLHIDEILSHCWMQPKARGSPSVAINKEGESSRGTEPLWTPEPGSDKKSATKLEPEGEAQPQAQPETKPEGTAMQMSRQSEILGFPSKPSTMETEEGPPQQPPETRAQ
Method in brief: as §1

ZAP70, sequence (P43403 whole entry): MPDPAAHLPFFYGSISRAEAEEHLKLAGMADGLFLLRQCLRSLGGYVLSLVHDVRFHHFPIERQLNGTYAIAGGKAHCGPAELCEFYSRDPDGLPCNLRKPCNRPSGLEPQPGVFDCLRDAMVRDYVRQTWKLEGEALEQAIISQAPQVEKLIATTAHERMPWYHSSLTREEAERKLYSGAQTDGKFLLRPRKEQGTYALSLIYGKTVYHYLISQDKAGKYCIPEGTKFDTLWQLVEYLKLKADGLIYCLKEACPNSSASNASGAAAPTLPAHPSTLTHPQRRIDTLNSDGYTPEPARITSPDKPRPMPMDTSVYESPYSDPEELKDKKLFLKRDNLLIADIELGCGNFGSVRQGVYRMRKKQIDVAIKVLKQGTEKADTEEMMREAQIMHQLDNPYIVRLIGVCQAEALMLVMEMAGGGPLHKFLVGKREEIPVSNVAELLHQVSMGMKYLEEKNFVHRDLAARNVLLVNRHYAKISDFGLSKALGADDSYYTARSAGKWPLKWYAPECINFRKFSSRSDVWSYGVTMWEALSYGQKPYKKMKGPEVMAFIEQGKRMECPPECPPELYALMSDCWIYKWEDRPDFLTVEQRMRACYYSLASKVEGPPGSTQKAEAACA

## C=CS(=O)(=O)c1ccc(Nc2nc(OCC3CCCCC3)c3nc[nH]c3n2)cc1 [NU6300, 6-(cyclohexylmethoxy)-N-(4-(vinylsulfonyl)phenyl)-9H-purin-2-amine]
[1]
  remaining activity at 1 µM: 90%
[2]
  remaining activity at 1 µM: 92%
[3]
  remaining activity at 1 µM: 102%
[4]
  remaining activity at 1 µM: 81%
[5]
  remaining activity at 1 µM: 70%
[6]
  remaining activity at 1 µM: 50%
[7]
  remaining activity at 1 µM: 24%
[8]
  remaining activity at 1 µM: 32%
[9]
  remaining activity at 1 µM: 73%
[10]
  remaining activity at 1 µM: 56%
[11]
  remaining activity at 1 µM: 83%
[12]
  remaining activity at 1 µM: 84%
[13]
  remaining activity at 1 µM: 82%
[14]
  remaining activity at 1 µM: 86%
[15]
  remaining activity at 1 µM: 26%

Reference: article PMC4579270, “Identification and Characterization of an Irreversible Inhibitor of CDK2” (Chemistry & Biology, 2015)
